Eight compounds from US10793568B2, “Hormone receptor modulators for treating metabolic conditions and disorders” (ARDELYX, INC., priority 2016, dated 2020) can be followed below.

As a reminder, the pEC50 is −log10 of the EC50, conventionally taken in molar units. A low value points to a high EC50.

The target of assay [1] is ligand binding domain of human FXR (Homo sapiens (Human), UniProt Q96RI1). In words: FXR ligand binding assay (LanthaScreen TR-FRET, SRC2-2 peptide recruitment). Conditions: for Emax: read-out: % Efficacy. On the technique in general: Time-resolved FRET reads energy transfer from a long-lived donor to a nearby acceptor.
ligand binding domain of human FXR, sequence (Q96RI1 262-486): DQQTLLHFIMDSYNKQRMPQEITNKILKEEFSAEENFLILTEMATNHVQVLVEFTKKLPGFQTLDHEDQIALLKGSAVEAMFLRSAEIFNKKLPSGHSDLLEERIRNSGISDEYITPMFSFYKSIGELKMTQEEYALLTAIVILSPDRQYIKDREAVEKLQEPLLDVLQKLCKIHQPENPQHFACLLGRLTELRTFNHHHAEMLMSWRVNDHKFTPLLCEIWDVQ
Assay [2] concerns the target human Farnesoid X receptor ligand-binding domain/Gal4 DNA binding domain chimera (Homo sapiens (Human), UniProt Q96RI1). Description: Cell-based assay of FXR activation (FXR-UAS-bla HEK 293T beta-lactamase reporter). Conditions: cellular FXR beta-lactamase reporter assay; for Emax: HEK-293T, extent of activation relative to GW4064, read-out: % Efficacy; for EC50: FXR-UAS-bla HEK 293T cells, 16 h, pEC50 = -log EC50. The procedure, abridged:
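HEK 293T cells stably expressing a Gal4-fused human FXR LBD and a UAS-driven beta-lactamase reporter were incubated with serially diluted compounds for 16 h at 37 °C in phenol red-free DMEM with 2% charcoal-stripped FBS. CCF4 FRET read-out: excitation 409 nm, emission 447 nm. pEC50 comes from a 3-parameter logistic fit, and efficacy is given as % of GW4064.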

Setting [3] is: -log EC50, concentration required to produce 50% activation.
[4] abbreviates: extent of activation relative to GW4064.

Read-outs that look alike come from different tables or passages of the source.

human Farnesoid X receptor ligand-binding domain/Gal4 DNA binding domain chimera, sequence (Q96RI1 262-486, change not shown): as the sequence (Q96RI1 262-486) above
human Farnesoid X receptor ligand-binding domain/Gal4 DNA binding domain chimera, sequence (P04386 1-147 partner): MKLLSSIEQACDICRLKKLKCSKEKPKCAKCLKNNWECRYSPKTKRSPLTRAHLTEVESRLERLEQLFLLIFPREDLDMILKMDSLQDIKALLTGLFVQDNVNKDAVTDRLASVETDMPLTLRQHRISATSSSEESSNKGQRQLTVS

The compound `O=P(O)(O)Cc1ccc(N2C[C@@H]3C[C@H]2C[C@H]3OCc2c(-c3c(Cl)cccc3Cl)noc2C2CC2)cc1` [Compound I-176, ({4-[(1S,4S,5R)-5-{[5-cyclopropyl-3-(2,6-dichlorophenyl)-1,2-oxazol-4-yl]methoxy}-2-azabicyclo[2.2.1]heptan-2-yl]phenyl}methyl)phosphonic Acid] had a pEC50 in assay [1] (setting [3]) of 7.5. The Emax in assay [1] was determined as 120%; in assay [2], 92%. In addition, the EC50 in assay [2] is 631 nM.

`COC(=O)c1ccc(N2C[C@@H]3C[C@H]2C[C@H]3OCc2c(-c3c(Cl)cccc3Cl)noc2C2CC2)cc1F` [Compound I-177, methyl 4-[(1S,4S,5R)-5-{[5-cyclopropyl-3-(2,6-dichlorophenyl)-1,2-oxazol-4-yl]methoxy}-2-azabicyclo[2.2.1]heptan-2-yl]-2-fluorobenzoate] came in with a pEC50 in assay [1] (setting [3]) of 7.4. Besides, the Emax in assay [1] (setting [4]) came to 130%. For the same compound, in assay [2], the Emax was 109% and the EC50 was 12.6 nM.

For the compound `O=C(O)c1nnc(N2C[C@@H]3C[C@H]2C[C@H]3OCc2c(-c3c(Cl)cccc3Cl)noc2C2CC2)s1` [Compound I-178, 5-[(1S,4S,5R)-5-{[5-cyclopropyl-3-(2,6-dichlorophenyl)-1,2-oxazol-4-yl]methoxy}-2-azabicyclo[2.2.1]heptan-2-yl]-1,3,4-thiadiazole-2-carboxylic Acid], in assay [1] (setting [3]), the pEC50 worked out at 6.9. For the same compound, the Emax in assay [1] (setting [4]) amounted to 86%. In addition, in assay [2], the Emax amounted to 70% and the EC50 is 158 nM.

The compound `Cn1nc(C(=O)O)cc1N1C[C@@H]2C[C@H]1C[C@H]2OCc1c(-c2c(Cl)cccc2Cl)noc1C1CC1` [Compound I-180, 5-[(1S,4S,5R)-5-[[5-cyclopropyl-3-(2,6-dichlorophenyl)-1,2-oxazol-4-yl]methoxy]-2-azabicyclo[2.2.1]heptan-2-yl]-1-methyl-1H-pyrazole-3-carboxylic acid] showed a pEC50 in assay [1] (setting [3]) of more than 6.5. Further, the EC50 in assay [2] was less than 316 nM.

The compound `O=C(NS(=O)(=O)C1CCCCC1)c1ccc(N2C[C@@H]3C[C@H]2C[C@H]3OCc2c(-c3c(Cl)cccc3Cl)noc2C2CC2)cc1` [Compound I-181, N-(cyclohexanesulfonyl)-4-[(1S,4S,5R)-5-{[5-cyclopropyl-3-(2,6-dichlorophenyl)-1,2-oxazol-4-yl]methoxy}-2-azabicyclo[2.2.1]heptan-2-yl]benzamide] displayed a pEC50 in assay [1] (setting [3]) of 8.8. The Emax in assay [1] was 166%. Further, in assay [2], the Emax is 110% and the EC50 is 0.0631 nM.

For `O=C(NS(=O)(=O)C1CCOCC1)c1ccc(N2C[C@@H]3C[C@H]2C[C@H]3OCc2c(-c3c(Cl)cccc3Cl)noc2C2CC2)cc1` [Compound I-182, 4-[(1S,4S,5R)-5-{[5-cyclopropyl-3-(2,6-dichlorophenyl)-1,2-oxazol-4-yl]methoxy}-2-azabicyclo[2.2.1]heptan-2-yl]-N-(oxane-4-sulfonyl)benzamide], the EC50 was 1.26 nM in assay [1] (setting [3]) and 0.158 nM in assay [2]. The Emax worked out at 156% in assay [1] (setting [4]) and 106% in assay [2].

With `O=C(NS(=O)(=O)C1CCC1)c1ccc(N2C[C@@H]3C[C@H]2C[C@H]3OCc2c(-c3c(Cl)cccc3Cl)noc2C2CC2)cc1` [Compound I-183, N-(cyclobutylsulfonyl)-4-((1S,4S,5R)-5-((5-cyclopropyl-3-(2,6-dichlorophenyl)isoxazol-4-yl)methoxy)-2-azabicyclo[2.2.1]heptan-2-yl)benzamide], the pEC50 in assay [1] (setting [3]) is 8.6. The Emax in assay [1] (setting [4]) was 163%. In addition, in assay [2], the Emax turned out to be 119% and the EC50 is 0.1 nM.

For `O=C(NS(=O)(=O)C1COC1)c1ccc(N2C[C@@H]3C[C@H]2C[C@H]3OCc2c(-c3c(Cl)cccc3Cl)noc2C2CC2)cc1` [Compound I-184, 4-((1S,4S,5R)-5-((5-cyclopropyl-3-(2,6-dichlorophenyl)isoxazol-4-yl)methoxy)-2-azabicyclo[2.2.1]heptan-2-yl)-N-(oxetan-3-ylsulfonyl)benzamide], the pEC50 in assay [1] (setting [3]) was found to be 7.7. Also, the Emax in assay [1] (setting [4]) was 161%. Moreover, in assay [2], the Emax came out at 108% and the EC50 was 3.16 nM.
